# System: patients with seasonal allergic rhinitis (SAR)
# Assay: MP 428 study: adverse events, Safety Population
# Assay type: in vivo, human
# Description: A two-week, randomized, double-blind study, which evaluated the effects of the co-administration of ASTELIN® (azelastine hydrochloride (HCl)) and FLONASE® (fluticasone propionate) compared to either product alone in patients with seasonal allergic rhinitis (SAR) was conducted during the 2006 Texas mountain cedar season. After a 5-day placebo lead-in period, 151 patients with moderate-to-severe allergic rhinitis symptoms were randomized to either: (1) (49 total patients) ASTELIN® (azelastine hydrochloride (HCl)) plus placebo saline nasal spray 2 sprays per nostril, 15 minutes apart, twice daily (AM & PM); (2) (50 total patients) FLONASE® (fluticasone propionate) plus placebo saline nasal spray, 2 sprays per nostril, 15 minutes apart, once daily (AM) and two sessions of placebo saline nasal spray, 2 sprays per nostril, 15 minutes apart (PM); or (3) (52 total patients) the co-administration of ASTELIN® (azelastine hydrochloride (HCl)) 2 sprays per nostril plus FLONASE® (fluticasone propionate) 2 sprays per nostril (AM), 15 minutes apart, and ASTELIN® (azelastine hydrochloride (HCl)) 2 sprays per nostril plus placebo saline nasal spray, 15 minutes apart, (PM) for a 2-week double-blind treatment period.
# The most common adverse events (AEs) were bitter taste (8.2% in ASTELIN® (azelastine hydrochloride (HCl)) group, 2.0% in FLONASE® (fluticasone propionate) group, 13.5% in co-administration group) and headache (4.1% in ASTELIN® (azelastine hydrochloride (HCl)) group, 4.0% in FLONASE® (fluticasone propionate) group, 5.8% in co-administration group). No other AE was reported by more than one patient in any treatment group. There were no discontinuations due to AEs.
# [1] = Total (possibly or probably related), Safety Population
compound,measurement,setting,value
"CCC(=O)O[C@]1(C(=O)SCF)[C@H](C)C[C@H]2[C@@H]3C[C@H](F)C4=CC(=O)C=C[C@]4(C)[C@@]3(F)[C@@H](O)C[C@@]21C [Fluticasone, fluticasone propionate]",Treatment-Emergent AE: NECK PAIN,Total,0 (0.0) No. of Patients (%)
same,"Treatment-Emergent AE: NERVOUS SYSTEM DISORDERS, Any Preferred Term",Total,2 (4.0) No. of Patients (%)
same,Treatment-Emergent AE: PHARYNGOLARYNGEAL PAIN,Total,0 (0.0) No. of Patients (%)
same,"Treatment-Emergent AE: RESPIRATORY, THORACIC AND MEDIASTINAL DISORDERS, Any Preferred Term",Total,0 (0.0) No. of Patients (%)
same,Treatment-Emergent AE: STOMACH DISCOMFORT,Total,1 (2.0) No. of Patients (%)
same,Treatment-Related Adverse Events: Any Adverse Event,[1],4 (8.0) No. of Patients (%)
same,Treatment-Related Adverse Events: DRY MOUTH,[1],1 (2.0) No. of Patients (%)
same,Treatment-Related Adverse Events: DYSGEUSIA,[1],1 (2.0) No. of Patients (%)
same,Treatment-Related Adverse Events: EPISTAXIS,[1],0 (0.0) No. of Patients (%)
same,"Treatment-Related Adverse Events: GASTROINTESTINAL DISORDERS, Any Preferred Term",[1],3 (6.0) No. of Patients (%)
same,Treatment-Related Adverse Events: HEADACHE,[1],1 (2.0) No. of Patients (%)
same,Treatment-Related Adverse Events: NASAL DISCOMFORT,[1],0 (0.0) No. of Patients (%)
same,"Treatment-Related Adverse Events: NERVOUS SYSTEM DISORDERS, Any Preferred Term",[1],1 (2.0) No. of Patients (%)
same,"Treatment-Related Adverse Events: RESPIRATORY, THORACIC AND MEDIASTINAL DISORDERS, Any Preferred Term",[1],0 (0.0) No. of Patients (%)
same,Treatment-Related Adverse Events: STOMACH DISCOMFORT,[1],1 (2.0) No. of Patients (%)
same,Treatment-Emergent AE: Any Adverse Event,max severity Mild,4 (8.0) No. of Patients (%)
same,Treatment-Emergent AE: DRY MOUTH,max severity Mild,1 (2.0) No. of Patients (%)
same,Treatment-Emergent AE: DYSGEUSIA,max severity Mild,1 (2.0) No. of Patients (%)
same,"Treatment-Emergent AE: EAR AND LABYRINTH DISORDERS, Any Preferred Term",max severity Mild,0 (0.0) No. of Patients (%)
same,Treatment-Emergent AE: EAR PAIN,max severity Mild,0 (0.0) No. of Patients (%)
same,Treatment-Emergent AE: EPISTAXIS,max severity Mild,0 (0.0) No. of Patients (%)
same,"Treatment-Emergent AE: GASTROINTESTINAL DISORDERS, Any Preferred Term",max severity Mild,2 (4.0) No. of Patients (%)
same,Treatment-Emergent AE: HEADACHE,max severity Mild,2 (4.0) No. of Patients (%)
same,"Treatment-Emergent AE: MUSCULOSKELETAL AND CONNECTIVE TISSUE DISORDERS, Any Preferred Term",max severity Mild,0 (0.0) No. of Patients (%)
same,Treatment-Emergent AE: MYALGIA,max severity Mild,0 (0.0) No. of Patients (%)
same,Treatment-Emergent AE: NASAL DISCOMFORT,max severity Mild,0 (0.0) No. of Patients (%)
same,Treatment-Emergent AE: NECK PAIN,max severity Mild,0 (0.0) No. of Patients (%)
same,"Treatment-Emergent AE: NERVOUS SYSTEM DISORDERS, Any Preferred Term",max severity Mild,2 (4.0) No. of Patients (%)
same,Treatment-Emergent AE: PHARYNGOLARYNGEAL PAIN,max severity Mild,0 (0.0) No. of Patients (%)
same,"Treatment-Emergent AE: RESPIRATORY, THORACIC AND MEDIASTINAL DISORDERS, Any Preferred Term",max severity Mild,0 (0.0) No. of Patients (%)
same,Treatment-Emergent AE: STOMACH DISCOMFORT,max severity Mild,0 (0.0) No. of Patients (%)
same,Treatment-Emergent AE: Any Adverse Event,max severity Moderate,1 (2.0) No. of Patients (%)
same,Treatment-Emergent AE: DRY MOUTH,max severity Moderate,0 (0.0) No. of Patients (%)
same,Treatment-Emergent AE: DYSGEUSIA,max severity Moderate,0 (0.0) No. of Patients (%)
same,"Treatment-Emergent AE: EAR AND LABYRINTH DISORDERS, Any Preferred Term",max severity Moderate,0 (0.0) No. of Patients (%)
same,Treatment-Emergent AE: EAR PAIN,max severity Moderate,0 (0.0) No. of Patients (%)
same,Treatment-Emergent AE: EPISTAXIS,max severity Moderate,0 (0.0) No. of Patients (%)
same,"Treatment-Emergent AE: GASTROINTESTINAL DISORDERS, Any Preferred Term",max severity Moderate,1 (2.0) No. of Patients (%)
same,Treatment-Emergent AE: HEADACHE,max severity Moderate,0 (0.0) No. of Patients (%)
same,"Treatment-Emergent AE: MUSCULOSKELETAL AND CONNECTIVE TISSUE DISORDERS, Any Preferred Term",max severity Moderate,0 (0.0) No. of Patients (%)
same,Treatment-Emergent AE: MYALGIA,max severity Moderate,0 (0.0) No. of Patients (%)
same,Treatment-Emergent AE: NASAL DISCOMFORT,max severity Moderate,0 (0.0) No. of Patients (%)
same,Treatment-Emergent AE: NECK PAIN,max severity Moderate,0 (0.0) No. of Patients (%)
same,"Treatment-Emergent AE: NERVOUS SYSTEM DISORDERS, Any Preferred Term",max severity Moderate,0 (0.0) No. of Patients (%)
same,Treatment-Emergent AE: PHARYNGOLARYNGEAL PAIN,max severity Moderate,0 (0.0) No. of Patients (%)
same,"Treatment-Emergent AE: RESPIRATORY, THORACIC AND MEDIASTINAL DISORDERS, Any Preferred Term",max severity Moderate,0 (0.0) No. of Patients (%)
same,Treatment-Emergent AE: STOMACH DISCOMFORT,max severity Moderate,1 (2.0) No. of Patients (%)
same,Treatment-Emergent AE: Any Adverse Event,max severity Severe,0 (0.0) No. of Patients (%)
same,Treatment-Emergent AE: DRY MOUTH,max severity Severe,0 (0.0) No. of Patients (%)
same,Treatment-Emergent AE: DYSGEUSIA,max severity Severe,0 (0.0) No. of Patients (%)
same,"Treatment-Emergent AE: EAR AND LABYRINTH DISORDERS, Any Preferred Term",max severity Severe,0 (0.0) No. of Patients (%)
same,Treatment-Emergent AE: EAR PAIN,max severity Severe,0 (0.0) No. of Patients (%)
same,Treatment-Emergent AE: EPISTAXIS,max severity Severe,0 (0.0) No. of Patients (%)
same,"Treatment-Emergent AE: GASTROINTESTINAL DISORDERS, Any Preferred Term",max severity Severe,0 (0.0) No. of Patients (%)
same,Treatment-Emergent AE: HEADACHE,max severity Severe,0 (0.0) No. of Patients (%)
same,"Treatment-Emergent AE: MUSCULOSKELETAL AND CONNECTIVE TISSUE DISORDERS, Any Preferred Term",max severity Severe,0 (0.0) No. of Patients (%)
same,Treatment-Emergent AE: MYALGIA,max severity Severe,0 (0.0) No. of Patients (%)
same,Treatment-Emergent AE: NASAL DISCOMFORT,max severity Severe,0 (0.0) No. of Patients (%)
same,Treatment-Emergent AE: NECK PAIN,max severity Severe,0 (0.0) No. of Patients (%)
same,"Treatment-Emergent AE: NERVOUS SYSTEM DISORDERS, Any Preferred Term",max severity Severe,0 (0.0) No. of Patients (%)
same,Treatment-Emergent AE: PHARYNGOLARYNGEAL PAIN,max severity Severe,0 (0.0) No. of Patients (%)
same,"Treatment-Emergent AE: RESPIRATORY, THORACIC AND MEDIASTINAL DISORDERS, Any Preferred Term",max severity Severe,0 (0.0) No. of Patients (%)
same,Treatment-Emergent AE: STOMACH DISCOMFORT,max severity Severe,0 (0.0) No. of Patients (%)
same,adverse event: bitter taste,share of treatment group,2.0%
same,adverse event: headache,share of treatment group,4.0%

# From US8758816B2, “Compositions comprising azelastine and methods of use thereof” (priority 2004, dated 2014)
